Molecules are shown by their SMILES.

For assay [1], the system named is late watergrass. In words: Test Example 1: herbicidal activity, application before weed generation under submerged conditions (Table 16, symbol A). Type of assay: in vivo, late watergrass (Echinochloa oryzicola). Particulars: for Herbicidal effect on A: late watergrass (grade 0-5): 320 g/ha applied herbicide. The text has this: (§1) [Test Example 1] Herbicidal Activity Test by Application before Weed Generation under Submerged Conditions After alluvial soil was placed into 1/10000 are of Wagner pot, water was poured and mixed to form a submerged condition having a water depth of 4 cm. Seeds of late watergrass, Japanese bulrush, and oval-leafed pondweed were sowed in a mixed manner in the aforementioned pot, and then 2.5 leaf stage rice plant seedlings were transplanted thereto. On the day of sowing seeds, the emulsion agent of the compound of the present invention prepared according to Formulation Example 2 was diluted with water so as to achieve a predetermined herbicide amount, and the diluted emulsion agent was applied to the surface of the water. The pot was placed in a greenhouse at 25° C. to 30° C. for growth of the plants. Three weeks after the herbicide application, the effect of the herbicide on each plant was evaluated according to the following criteria. Evaluation Criteria 5: Herbicidal rate of 90% or more (almost completely withered) 4: Herbicidal rate of 70% or more and less than 90% 3: Herbicidal rate of 40% or more and less than 70% 2: Herbicidal rate of 20% or more and less than 40% 1: Herbicidal rate of 5% or more and less than 20% 0: Herbicidal rate of 5% or less (almost no effect)

Assay [2] has as its system Japanese bulrush. In words: Test Example 1: herbicidal activity, application before weed generation under submerged conditions (Table 16, symbol B). The assay is classed as in vivo, Japanese bulrush (Schoenoplectus juncoides). Particulars: for Herbicidal effect on B: Japanese bulrush (grade 0-5): 320 g/ha applied herbicide.
Source text: as §1

Assay [3] relates to oval-leafed pondweed. In words: Test Example 1: herbicidal activity, application before weed generation under submerged conditions (Table 16, symbol C). Particulars: for Herbicidal effect on C: oval-leafed pondweed (grade 0-5): 320 g/ha applied herbicide. The assay is classed as in vivo, oval-leafed pondweed (Monochoria vaginalis).
Source text: as §1

Assay [4] deals with southern crabgrass. In words: Test Example 5: herbicidal effect by foliage application, plastic box (Table 20, symbol F). Type of assay: in vivo, southern crabgrass (Digitaria ciliaris). Particulars: foliage application, 320 g/ha, three weeks after application. In short, it runs like this: (§2)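 Post-emergence foliar test in sterilized diluvial soil. Compound applied as water-diluted emulsion at a predetermined rate to 14-day-old plants; evaluation at three weeks.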

Assay [5] relates to green foxtail. In words: Test Example 5: herbicidal effect by foliage application, plastic box (Table 20, symbol G). Particulars: foliage application, 320 g/ha, three weeks after application. Type of assay: in vivo, green foxtail (Setaria viridis). In short, it runs like this:
as §2

Assay [6] has as its system barnyard grass. In words: Test Example 5: herbicidal effect by foliage application, plastic box (Table 20, symbol H). Type of assay: in vivo, barnyard grass (Echinochloa crus-galli). Particulars: foliage application, 320 g/ha, three weeks after application. In short, it runs like this: as §2
The test system of assay [7] is wild oat. In words: Test Example 5: herbicidal effect by foliage application, plastic box (Table 20, symbol I). Type of assay: in vivo, wild oat (Avena fatua). Particulars: foliage application, 320 g/ha, three weeks after application. In short, it runs like this: as §2
The test system of assay [8] is blackgrass. In words: Test Example 5: herbicidal effect by foliage application, plastic box (Table 20, symbol J). Particulars: foliage application, 320 g/ha, three weeks after application. The assay is classed as in vivo, blackgrass (Alopecurus myosuroides). In short, it runs like this: as §2
In assay [9] the test system is Italian ryegrass. In words: Test Example 5: herbicidal effect by foliage application, plastic box (Table 20, symbol K). Type of assay: in vivo, Italian ryegrass (Lolium multiflorum). Particulars: foliage application, 320 g/ha, three weeks after application. In short, it runs like this:
as §2

The subject of assay [10] is windgrass. In words: Test Example 5: herbicidal effect by foliage application, plastic box (Table 20, symbol L). Particulars: foliage application, 320 g/ha, three weeks after application. Type of assay: in vivo, windgrass (Apera spica-venti). In short, it runs like this:
as §2

The subject of assay [11] is velvetleaf. In words: Test Example 5: herbicidal effect by foliage application, plastic box (Table 20, symbol M). The assay is classed as in vivo, velvetleaf (Abutilon theophrasti). Particulars: foliage application, 320 g/ha, three weeks after application. In short, it runs like this: as §2
The test system of assay [12] is lambsquarters. In words: Test Example 5: herbicidal effect by foliage application, plastic box (Table 20, symbol O). The assay is classed as in vivo, lambsquarters (Chenopodium album). Particulars: foliage application, 320 g/ha, three weeks after application. In short, it runs like this:
as §2

The subject of assay [13] is persian speedwell. In words: Test Example 5: herbicidal effect by foliage application, plastic box (Table 20, symbol R). Type of assay: in vivo, Persian speedwell (Veronica persica). Particulars: foliage application, 320 g/ha, three weeks after application. The method in brief:
as §2

Assay [14] has as its system barnyard grass. In words: Test Example 3: herbicidal effect by foliage application, Wagner pot (Table 18, symbol H). The assay is classed as in vivo, barnyard grass (Echinochloa crus-galli). Particulars: amount of applied herbicide 320 g/ha. In short, it runs like this: (§3)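 Plants were sown in alluvial soil held under 0.1–0.5 cm standing water and grown 14 days in a greenhouse at 25–30 °C. An emulsifiable formulation, water-diluted to the set dose, was then sprayed onto the foliage, and effects were scored three weeks later using previously defined criteria.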

For assay [15], the system named is Chinese sprangletop. In words: Test Example 3: herbicidal effect by foliage application, Wagner pot (Table 18, symbol D). The assay is classed as in vivo, chinese sprangletop (Leptochloa chinensis). Particulars: amount of applied herbicide 320 g/ha. The method in brief:
as §3

In assay [16] the test system is rice flat sedge. In words: Test Example 3: herbicidal effect by foliage application, Wagner pot (Table 18, symbol E). The assay is classed as in vivo, rice flat sedge (Cyperus iria). Particulars: amount of applied herbicide 320 g/ha. In short, it runs like this:
as §3

The mark [17] stands for this setting: amount of applied herbicide 320 g/ha.

Regarding `Cc1cc2sc(-c3ccc(OC(F)F)cc3)c(-c3c(O)c(C)nn(C)c3=O)c2cc1C` [5-098], the “Herbicidal effect, A: late watergrass” value in [1] (setting [17]) is 3 (Herbicidal rate of 40% or more and less than 70%). The “Herbicidal effect, B: Japanese bulrush” value in assay [2] (setting [17]) is recorded as 0 (Herbicidal rate of 5% or less (almost no effect)). In assay [3] (setting [17]), the “Herbicidal effect, C: oval-leafed pondweed” value is listed as 0 (Herbicidal rate of 5% or less (almost no effect)). In assay [4], the “herbicidal effect on southern crabgrass (F)” value is recorded as 0 (Herbicidal rate of 5% or less (almost no effect)). In addition, the “herbicidal effect on green foxtail (G)” value in assay [5] is given as 0 (Herbicidal rate of 5% or less (almost no effect)). The “herbicidal effect on barnyard grass (H)” value in [6] was 0 (Herbicidal rate of 5% or less (almost no effect)). Also, the “herbicidal effect on wild oat (I)” value in assay [7] was 0 (Herbicidal rate of 5% or less (almost no effect)). For the same molecule, the “herbicidal effect on blackgrass (J)” value in assay [8] is 0 (Herbicidal rate of 5% or less (almost no effect)). Moreover, the “herbicidal effect on Italian ryegrass (K)” value in [9] is on record as 0 (Herbicidal rate of 5% or less (almost no effect)). In addition, the “herbicidal effect on windgrass (L)” value in [10] was 0 (Herbicidal rate of 5% or less (almost no effect)). Besides, in [11], the “herbicidal effect on velvetleaf (M)” value is listed as 0 (Herbicidal rate of 5% or less (almost no effect)). The “herbicidal effect on lambsquarters (O)” value in assay [12] is recorded as 0 (Herbicidal rate of 5% or less (almost no effect)). For the same molecule, the “herbicidal effect on persian speedwell (R)” value in [13] was 5 (Herbicidal rate of 90% or more (almost completely withered)).
For the molecule `CCS(=O)(=O)Cc1ccc(-c2sc3ccc(F)cc3c2-c2c(O)c(C)nn(C)c2=O)cc1` [2-335], the “Herbicidal effect on A: late watergrass (grade 0-5)” value in [1] is 3 (Herbicidal rate of 40% or more and less than 70%). For the same molecule, the “Herbicidal effect on B: Japanese bulrush (grade 0-5)” value in assay [2] is given as 0 (Herbicidal rate of 5% or less (almost no effect)). The “Herbicidal effect on C: oval-leafed pondweed (grade 0-5)” value in [3] is recorded as 0 (Herbicidal rate of 5% or less (almost no effect)). For the same molecule, the “herbicidal effect on H: barnyard grass” value in assay [14] is 5 (Herbicidal rate of 90% or more (almost completely withered)). Besides, the “herbicidal effect on D: Chinese sprangletop” value in assay [15] was 3 (Herbicidal rate of 40% or more and less than 70%). The “herbicidal effect on E: rice flat sedge” value in assay [16] is reported as 5 (Herbicidal rate of 90% or more (almost completely withered)).
In the case of `CC[S+]([O-])Cc1ccc(-c2sc3ccc(F)cc3c2-c2c(O)c(C)nn(C)c2=O)cc1` (stereo not shown) [2-333], the “Herbicidal effect on A: late watergrass (grade 0-5)” value in assay [1] was 2 (Herbicidal rate of 20% or more and less than 40%). In addition, the “Herbicidal effect on B: Japanese bulrush (grade 0-5)” value in assay [2] is on record as 0 (Herbicidal rate of 5% or less (almost no effect)). Further, the “Herbicidal effect on C: oval-leafed pondweed (grade 0-5)” value in [3] is recorded as 0 (Herbicidal rate of 5% or less (almost no effect)). The “herbicidal effect on H: barnyard grass” value in assay [14] is given as 5 (Herbicidal rate of 90% or more (almost completely withered)). Also, the “herbicidal effect on D: Chinese sprangletop” value in assay [15] is 2 (Herbicidal rate of 20% or more and less than 40%). The “herbicidal effect on E: rice flat sedge” value in assay [16] is recorded as 5 (Herbicidal rate of 90% or more (almost completely withered)).

The values are drawn from patent US20230085307A1, “PYRIDAZINONE COMPOUND AND HERBICIDE” (NISSAN CHEMICAL CORPORATION, priority 2019, published 2023).
